This is an account of results in paper PMC9098913, “In vitro reconstitution of Escherichia coli divisome activation” (Nature Communications, 2022).

Like-named read-outs stand apart in the source and are kept apart here.

For orientation: Kd means a measure of binding affinity in units of concentration.

The nature of assay [1]: Membrane binding of FtsA by QCM-D. The conditions noted are these: for amount of membrane-bound protein saturated at / Kd: QCM-D; for Kd: Hill fit, 5th harmonic, DOPC:DOPG 67:33 mol%, pH 7.4, 150 mM KCl, 5 mM MgCl2, 2 mM ATP, 2 mM GTP, 25 °C, n = 2, upper estimate. How it is done: To quantify the intrinsic membrane-affinity of the two versions of FtsA, we used Quartz Crystal Microbalance with Dissipation (QCM-D) and measured the hydrated mass of adsorbed protein on a membrane surface.
QCM-D experiments were performed with the QSense Analyzer from Biolin Scientific, equipped with silica-coated sensor (QSX 303). The sensors were cleaned for 10 s in a Zepto plasma cleaner, mounted in the QCM-D chambers and the acquisition of the experiment was first performed in the reaction buffer (50 mM Tris-HCl [pH 7.4], 150 mM KCl and 5 mM MgCl2). The supported lipid membrane was formed by rupturing 0.5 mM small unilamellar vesicles (SUVs) in the presence of MgCl2. The lipids used were 1,2-dioleoyl-sn-glycero-3-phosphocholine (DOPC) and 1,2-dioleoyl-sn-glycero-3-phospho-(1′-rac-glycerol) (DOPG) at a ratio of 67:33 mol%. After bilayer formations, the reaction buffer supplemented with 2 mM ATP, 2 mM GTP and 1 mM DTT was injected and the signal was recorded until a stable equilibrium was reached. Subsequently, increasing concentrations of FtsA were injected in the QCM-D chamber and changes in frequency and dissipation were monitored in real-time. The flow rate used in all experiments was 25 µl min^−1, and the temperature was set to 25 °C. To estimate the membrane-binding affinity, we extracted the frequency changes of the 5th acoustic harmonic for different FtsA concentrations and fitted a Hill equation y=S+(E−S)⋅(x^n/k^n+x^n) , where S is the starting point, E the end point, n is the Hill coefficient and k the dissociation constant. The measured binding affinity is an upper estimate, because QCM-D accounts not only on the dry molecular mass, but also on the hydration shell of the molecular assembly.

The test system of a further assay is FtsA/Z co-filaments. It is filed as biochemical, E. coli. The conditions noted are these: Fig. 2g, mean. How it is done: By fitting an exponential function to the increase of the PCC with time, we were able to extract the corresponding recruitment rate (Fig. 2f, g).
Subsequently, the chamber was washed 6x with reaction buffer, to remove bulk peptide. To visualize colocalization with either FtsZ or FtsA, either a mix of FtsA and Alexa488-FtsZ or Cy3-FtsA and FtsZ was added. […] The time-lapse videos were recorded for 10 min after the addition, with one frame per 2 s.

Another assay concerns FtsZ. The following applies: 1.25 µM FtsZ, FtsA 0.1–0.8 µM. How it is done:
Additionally, the reaction chamber contained 4 mM ATP and 4 mM GTP, as well as a scavenging system to minimize photobleaching effects: 30 mM d-glucose, 0.050 mg ml^−1 Glucose Oxidase, 0.016 mg ml^−1 Catalase, 1 mM DTT and 1 mM Trolox. Prior addition of all components a corresponding buffer volume was removed from the chamber to obtain a total reaction volume of 100 µl. The dynamic protein pattern was monitored by time-lapse TIRF microscopy at one frame per 2 s and 50 ms exposure time.
Treadmilling dynamics, were quantified using an automated image analysis protocol previously developed by our group. To visualize colocalization of the co-treadmilling FtsZ & FtsA filaments, we used dual-colour videos obtained at an acquisition rate of one frame per 2 s. The two channels were aligned using FIJI’s 3TP align plugin. Both channels were then subjected to the image subtraction protocol and colocalization was measured as described above.

For “FtsA WT: wild-type E. coli actin-homologue FtsA, membrane anchor of FtsZ”, the “Mean of QCM-D experiments” value in assay [1] (0.01 µM) was determined as 1.23; in assay [1] (0.05 µM), 3.38; in assay [1] (0.10 µM), 7.01. In addition, in assay [1], the “amount of membrane-bound protein saturated at” value was 0.8 µM. Further, in assay [1], the dissociation constant (Kd) is 210 ± 10 nM. In addition, the “Recruitment rate of FtsN to FtsZ filaments” value with FtsA/Z co-filaments (Concentration 0.10 µM) was 2.60; in the assay on FtsA/Z co-filaments (Concentration 0.20 µM), 1.05; in the assay on FtsA/Z co-filaments (Concentration 0.40 µM) it was 0.99; in the assay on FtsA/Z co-filaments (Concentration 0.80 µM), 0.85. Besides, in the assay on FtsZ, the “effect on FtsZ treadmilling velocity” value was “could not observe a significant effect”.

B1: FtsA R286W (protein)
chain: MIKATDRKLVVGLEIGTAKVAALVGEVLPDGMVNIIGVGSCPSRGMDKGGVNDLESVVKCVQRAIDQAELMADCQISSVYLALSGKHISCQNEIGMVPISEEEVTQEDVENVVHTAKSVRVRDEHRVLHVIPQEYAIDYQEGIKNPVGLSGVRMQAKVHLITCHNDMAKNIVKAVERCGLKVDQLIFAGLASSYSVLTEDERELGVCVVDIGGGTMDIAVYTGGALRHTKVIPYAGNVVTSDIAYAFGTPPSDAEAIKVRHGCALGSIVGKDESVEVPSVGGRPPWSLQRQTLAEVIEPRYTELLNLVNEEILQLQEKLRQQGVKHHLAAGIVLTGGAAQIEGLAACAQRVFHTQVRIGAPLNITGLTDYAQEPYYSTAVGLLHYGKESHLNGEAEVEKRVTASVGSWIKRLNSWLRKEF
modifications: Cy3 or Cy5 at the N-terminus in the labelled form (labelled CLEPTGG peptide conjugated to the 5xGly tag by sortagging); unlabelled protein also used; left off: TwinStrep-SUMO, N-terminal, cleaved | 5x
For the molecule B1, the “Mean of QCM-D experiments” value in assay [1] (0.01 µM) is 0.81; in assay [1] (0.05 µM) it was 1.79; in assay [1] (0.10 µM), 3.36. The “amount of membrane-bound protein saturated at” value in assay [1] is recorded as 0.8 µM. The Kd in assay [1] was 320 ± 50 nM. In addition, the “Recruitment rate of FtsN to FtsZ filaments” value in the assay on FtsA/Z co-filaments (Concentration 0.10 µM) turned out to be 2.71; in the assay with FtsA/Z co-filaments (Concentration 0.20 µM) it was 3.32; in the assay with FtsA/Z co-filaments (Concentration 0.40 µM) it was 2.53; in the assay with FtsA/Z co-filaments (Concentration 0.80 µM), 2.36. Further, the “effect on FtsZ treadmilling velocity” value in the assay with FtsZ is listed as “could not detect a difference”.
